Measurements: patent US11008340B2, “Modulators of ROR-gamma” (Vitae Pharmaceuticals, LLC, priority 2015, dated 2021)
Where two headings read alike, the source gives them in different places.

Key:
[1] = biological target: T1, full-length RORγt in Jurkat cells (Homo sapiens, UniProt P51449); assay: RORγt 5×RORE Assay in Jurkat Cells (Assay 2); type: cell-based; details: 5×RORE luciferase reporter
T1 construct: transcriptional activity of the full-length RORγt in Jurkat cells; host or cells: Jurkat cells (ATCC TIB-152)
T1 sequence (P51449 1-497 isoform P51449-2): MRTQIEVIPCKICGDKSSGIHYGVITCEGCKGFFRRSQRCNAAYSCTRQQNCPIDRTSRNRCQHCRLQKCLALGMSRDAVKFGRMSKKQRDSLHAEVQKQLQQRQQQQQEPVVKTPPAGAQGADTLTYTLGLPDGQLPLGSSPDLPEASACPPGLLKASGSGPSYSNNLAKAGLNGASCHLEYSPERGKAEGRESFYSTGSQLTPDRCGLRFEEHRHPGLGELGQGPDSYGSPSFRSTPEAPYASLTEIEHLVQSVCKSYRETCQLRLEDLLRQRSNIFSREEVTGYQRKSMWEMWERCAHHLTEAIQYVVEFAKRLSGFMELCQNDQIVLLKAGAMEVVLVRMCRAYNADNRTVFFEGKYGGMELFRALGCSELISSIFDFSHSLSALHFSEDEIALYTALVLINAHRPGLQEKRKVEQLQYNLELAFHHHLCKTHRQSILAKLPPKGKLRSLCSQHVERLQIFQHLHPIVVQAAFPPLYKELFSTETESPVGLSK
In short: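 Inverse agonism measured as reduced NanoGlo signal from secreted NanoLuc in conditioned supernatant after 16-18 hrs compound exposure (37° C, 0.1% DMSO). Reporter: 5×RORE-driven secNluc, co-transfected with full-length RORγt into Jurkat cells cultured in delipidated-FBS, phenol-red-free RPMI.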

[2] = biological target: T2, recombinant RORγ Ligand Binding Domain (LBD) protein (Homo sapiens, UniProt P51449); assay: Radio-Ligand RORγ Binding Assay (Assay 1); details: radio-ligand competition, 25-hydroxy [26,27-3H]-cholesterol, RORγ LBD; read-out: Avg ROR Bind Ki
T2 construct: 6×His; GST
T2 sequence (P51449 269-508 limits assumed): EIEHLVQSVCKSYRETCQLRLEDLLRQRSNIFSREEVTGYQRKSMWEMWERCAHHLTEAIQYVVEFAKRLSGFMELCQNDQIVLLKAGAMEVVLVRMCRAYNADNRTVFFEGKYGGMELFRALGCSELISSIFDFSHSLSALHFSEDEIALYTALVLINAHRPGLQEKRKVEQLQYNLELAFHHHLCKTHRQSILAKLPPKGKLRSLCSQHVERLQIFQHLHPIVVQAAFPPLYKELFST
In short: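 Cell-free SPA competition between compound and 25-hydroxy[26,27-^3H]-cholesterol for 6×His-GST-tagged RORγ LBD in 50 mM HEPES pH 7.4 with NaCl, MgCl2, glycerol, CHAPS, octylglucoside and DTT. Mix was shaken 20 min, held 10 min at rt, then read after poly-Lys YSi beads. IC50 came from a four-parameter fit, and Ki from radioligand KD.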

[3] = Table 20, read-out: Avg ROR γt/5x IC5

Row | SMILES | IC50 ([1]; read-out: Avg ROR γt/5x IC50) [nM] | Ki [2] [nM] | IC50 [1, 3] [nM]
1 | CCS(=O)(=O)c1ccc(CNC(=O)c2ccc3c(c2)CCN(Cc2ncc(C)cn2)[C@H]3C(C)C)cc1 (single isomer, unassigned) [Hy2A-12.1] | 100 to 1000 | 100 to 1000 | –
2 | CCS(=O)(=O)c1ccc(CNC(=O)c2ccc3c(c2)CCN(Cc2ccc(C#N)nc2)[C@H]3C(C)C)cc1 (single isomer, unassigned) [Hy2A-17.1] | < 100 | < 100 | –
3 | CCS(=O)(=O)c1ccc(CNC(=O)c2ccc3c(c2)CN(c2ncc(C4CC4)cn2)C[C@H]3C(C)C)cc1 (single isomer, unassigned) [Hy7-4.1] | – | < 100 | 100 to 1000
4 | CCS(=O)(=O)c1ccc(CNC(=O)c2ccc3c(c2)CN(c2ncc(Cl)cn2)C[C@H]3C(C)C)cc1 (single isomer, unassigned) [Hy7-3.1] | – | < 100 | 100 to 1000
5 | CCOC(=O)c1cnc(N2CCc3cc(C(=O)NCc4ccc(S(=O)(=O)CC)cc4)ccc3C2C(C)C)nc1C(F)(F)F (racemic) [Hy2A-5, ethyl 2-(6-((4-(ethylsulfonyl)benzyl)carbamoyl)-1-isopropyl-3,4-dihydroisoquinolin-2(1H)-yl)-4-(trifluoromethyl)pyrimidine-5-carboxylate] | 100 to 1000 | 100 to 1000 | –
6 | CCC1c2ccc(C(=O)NCc3ccc(S(=O)(=O)CC)cc3)cc2CCN1CC1CCC(C(F)(F)F)CC1 (single isomer, unassigned) [Hy2A-27] | < 100 | < 100 | –
7 | CCS(=O)(=O)c1ccc(CNC(=O)c2ccc3c(c2)C(C)(C)CN(Cc2ccc(C#N)cc2)C3C(C)C)cc1 (single isomer, unassigned) [Hy2A-23.2] | 100 to 1000 | < 100 | –
8 | CCS(=O)(=O)c1ccc(CNC(=O)c2ccc3c(c2)CCN(Cc2ccc(C#N)cc2)C3C(C)C)cc1 (racemic) [Hy2A-14, 2-(4-cyanobenzyl)-N-(4-(ethylsulfonyl)benzyl)-1-isopropyl-1,2,3,4-tetrahydroisoquinoline-6-carboxamide] | < 100 | < 100 | –
9 | CCS(=O)(=O)c1ccc(CNC(=O)c2ccc3c(c2)CN(c2ncc(-c4ccn(C)c(=O)c4)cn2)C[C@H]3C(C)C)cc1 (single isomer, unassigned) [Hy7-25.1] | – | < 100 | 100 to 1000
10 | CCS(=O)(=O)c1ccc(CNC(=O)c2ccc3c(c2)CCN(c2nccc(C(F)(F)F)n2)C3C(C)C)cc1 (stereo not drawn) [Hy2A-3, N-(4-(ethylsulfonyl)benzyl)-1-isopropyl-2-(4-(trifluoromethyl)pyrimidin-2-yl)-1,2,3,4-tetrahydroisoquinoline-6-carboxamide] | > 1000 | < 100 | –
11 | CCOC(=O)c1cnc(N2Cc3cc(C(=O)NCc4ccc(S(=O)(=O)CC)cc4)ccc3[C@H](C(C)C)C2)nc1C(F)(F)F (single isomer, unassigned) [Hy7-26.1] | – | < 100 | < 100
12 | CCS(=O)(=O)c1ccc(CNC(=O)c2ccc3c(c2)CN(c2ncc(-c4ccnc(OC)c4)cn2)C[C@H]3C(C)C)cc1 (single isomer, unassigned) [Hy7-23.1] | – | < 100 | < 100
13 | CCS(=O)(=O)c1ccc(CNC(=O)c2ccc3c(c2)CN(c2ncc(C(F)(F)F)cn2)C[C@H]3C(C)C)cc1 (single isomer, unassigned) [Hy7-15.1] | – | < 100 | 100 to 1000

Other lines, results leading:

Row | IC50 ([1]; read-out: Avg ROR γt/5x IC50) [nM] | Ki [2] [nM] | IC50 [1, 3] [nM] | SMILES
14 | – | < 100 | < 100 | CCOC(=O)c1cnc(N2Cc3cc(C(=O)N[C@@H](CO)c4ccc(S(=O)(=O)CC)cc4)ccc3[C@H](CC)C2)nc1 (single isomer, unassigned) [Hy7-34.1]
15 | 100 to 1000 | < 100 | – | CCS(=O)(=O)c1ccc(CNC(=O)c2ccc3c(OC[C@H]4CC[C@H](C(F)(F)F)CC4)nccc3c2)cc1 [Hy1A-5, N-(4-(ethylsulfonyl)benzyl)-1-(((1r,4r)-4-(trifluoromethyl)cyclohexyl)methoxy)isoquinoline-6-carboxamide]
16 | – | < 100 | < 100 | CC[C@@H]1CN(c2ncc(C(F)(F)F)cn2)Cc2cc(C(=O)NCc3ccc(S(=O)(=O)CC)cc3)ccc21 (single isomer, unassigned) [Hy7-9.1]
17 | – | < 100 | < 100 | CC[C@@H]1CN(c2ncc(C(F)(F)F)cn2)Cc2cc(C(=O)N[C@@H](CO)c3ccc(S(=O)(=O)CC)cn3)ccc21 (single isomer, unassigned) [Hy7-18.1]
18 | – | < 100 | 100 to 1000 | CC[C@@H]1CN(c2ncc(C3CC3)cn2)Cc2cc(C(=O)N[C@@H](CO)c3ccc(S(=O)(=O)CC)cc3)ccc21 (single isomer, unassigned) [Hy7-11.1]
19 | < 100 | < 100 | – | CCS(=O)(=O)c1ccc(CNC(=O)c2ccc3c(OC[C@H]4CC[C@H](C(F)(F)F)CC4)nc(C)cc3c2)cc1 [Hy1A-6, N-(4-(ethylsulfonyl)benzyl)-3-methyl-1-(((1r,4r)-4-(trifluoromethyl)cyclohexyl)methoxy)isoquinoline-6-carboxamide]
20 | – | < 100 | < 100 | CCC1CN(C2CCC(C(F)(F)F)CC2)Cc2cc(C(=O)NC(CO)c3ccc(S(=O)(=O)CC)cc3)ccc21 (single isomer, unassigned) [Hy7-35.1]
21 | 100 to 1000 | < 100 | – | CCS(=O)(=O)c1ccc([C@H](CO)NC(=O)c2ccc3c(OCc4ccc(C(F)(F)F)cc4)cc(C)nc3c2)cc1 [Hy1B-3, (R)-N-(1-(4-(ethylsulfonyl)phenyl)-2-hydroxyethyl)-2-methyl-4-((4-(trifluoromethyl)benzyl)oxy)quinoline-7-carboxamide]
22 | – | < 100 | > 1000 | CCS(=O)(=O)c1ccc(CNC(=O)c2ccc3c(c2)CN(c2nccc(C(F)(F)F)n2)C[C@@H]3C(C)C)cc1 (single isomer, unassigned) [Hy7-14.2]
23 | < 100 | < 100 | – | CCS(=O)(=O)c1ccc([C@H](CO)NC(=O)c2ccc3c(OC[C@@H]4CC[C@@H](C(F)(F)F)OC4)nc(C)cc3c2)cc1 (single isomer, unassigned) [Hy1A-18.2]
24 | – | < 100 | > 1000 | CC[C@@H]1CN(c2ncc(C(F)(F)F)cn2)Cc2cc(C(=O)N[C@H](CO)c3ccc(S(=O)(=O)CC)cn3)ccc21 (single isomer, unassigned) [Hy7-18.2]
25 | – | < 100 | < 100 | CC[C@@H]1CN(c2ccc(C(F)(F)F)cc2)Cc2cc(C(=O)NCc3ccc(S(=O)(=O)CC)cc3)ccc21 (single isomer, unassigned) [Hy7-7.1]
26 | < 100 | < 100 | – | CCS(=O)(=O)c1ccc([C@H](CO)NC(=O)c2sc3nc(C)nc(OCc4ccc(C(F)(F)F)cc4)c3c2C)cc1 [Hy6-3, (R)-N-(1-(4-(ethylsulfonyl)phenyl)-2-hydroxyethyl)-2,5-dimethyl-4-((4-(trifluoromethyl)benzyl)oxy)thieno[2,3-d]pyrimidine-6-carboxamide]
27 | < 100 | < 100 | – | CCS(=O)(=O)c1ccc(CNC(=O)c2ccc3c(OC[C@H]4CC[C@H](C(F)(F)F)CC4)nc(Cl)cc3c2)cc1 [Hy1A-9, 3-chloro-N-(4-(ethylsulfonyl)benzyl)-1-(((1r,4r)-4-(trifluoromethyl)cyclohexyl)methoxy)isoquinoline-6-carboxamide]
28 | > 1000 | < 100 | – | CCS(=O)(=O)c1ccc(CNC(=O)c2ccc3c(OC4CCC(C(F)(F)F)CC4)nccc3c2)cc1 (single isomer, unassigned) [Hy1A-3.2, N-(4-(ethylsulfonyl)benzyl)-1-(((1r,4r)-4-(trifluoromethyl)cyclohexyl)oxy)isoquinoline-6-carboxamide]
29 | < 100 | < 100 | – | CCS(=O)(=O)c1ccc([C@H](CO)NC(=O)c2ccc3c(C4CC4)n(C[C@H]4CC[C@H](C(F)(F)F)CC4)nc3c2)cc1 [Hy3A-1, 3-cyclopropyl-N-((R)-1-(4-(ethylsulfonyl)phenyl)-2-hydroxyethyl)-2-(((1r,4R)-4-(trifluoromethyl)cyclohexyl)methyl)-2H-indazole-6-carboxamide]
30 | – | < 100 | 100 to 1000 | CC[C@H]1CN(c2ncc(-c3ncco3)cn2)Cc2cc(C(=O)N[C@@H](CO)c3ccc(S(=O)(=O)CC)cc3)ccc21 (single isomer, unassigned) [Hy7-33.2]
